Publication PMC7432094, “Flexible NAD^+ Binding in Deoxyhypusine Synthase Reflects the Dynamic Hypusine Modification of Translation Factor IF5A” (International Journal of Molecular Sciences, 2020)

Target: T1, PhoDHS (deoxyhypusine synthase from Pyrococcus horikoshii OT3) (Pyrococcus horikoshii, UniProt O50105)
T1 construct: gene dys; full length 1-342, 39 kDa; N-terminal His6 tag with TEV site, tag cleaved; expressed in E. coli B834 (DE3) pRARE2; homotetramer about 130 kDa
Experiment: X-ray crystal structure ([…] Å); UV absorbance of NAD+ bound in solution
Type: binding
Conditions: NAD+ co-purified from E. coli, none added for the crystal; crystals at pH 4.8, 20 °C; UV at pH 8.0; site at the molA/molD interface

T1 sequence (O50105 whole entry): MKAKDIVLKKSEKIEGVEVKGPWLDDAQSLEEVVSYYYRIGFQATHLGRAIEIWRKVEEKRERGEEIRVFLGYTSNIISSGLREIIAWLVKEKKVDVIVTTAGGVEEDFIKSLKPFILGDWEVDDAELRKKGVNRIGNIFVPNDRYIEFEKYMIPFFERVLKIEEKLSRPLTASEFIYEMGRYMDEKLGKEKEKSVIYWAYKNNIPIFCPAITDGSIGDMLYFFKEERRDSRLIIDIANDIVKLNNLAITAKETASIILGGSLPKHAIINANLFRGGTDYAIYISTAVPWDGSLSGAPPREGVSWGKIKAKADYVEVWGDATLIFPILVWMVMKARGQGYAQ

NC(=O)c1ccc[n+]([C@@H]2O[C@H](COP(=O)(O)OP(=O)(O)OC[C@H]3O[C@@H](n4cnc5c(N)ncnc54)[C@H](O)[C@@H]3O)[C@@H](O)[C@H]2O)c1 [NAD^+]
X-ray crystal structure (2.2 Å); UV absorbance of NAD+ bound in solution: Two bulky electron density blocks shaped as NAD^+ were distinguished at the interface between molA
